{"source": "patent US7132271B2", "about": "“Methods for enhancing the production of viral vaccines in cell culture” (priority 1995, dated 2006)", "test_system": "human PKR", "experiment": "Western blot analysis of PKR protein in U937 transfectants", "format": "cell-based", "settings": "U937-neo cells", "procedure": "Cell extracts (100 μg) were separated on a 10% SDS-polyacrylamide gel and electrotransferred onto nitrocellulose membrane. The membranes were incubated with anti-PKR monoclonal antibody (Meurs et al. Cell 1990) at 1:1000 in BLOTTO (5% nonfat dry milk, 0.05% Tween-20 in Tris-buffered saline). Final detection of PKR was facilitated by probing with a secondary horseradish peroxidase-conjugated goat anti-mouse antibody (Santa Cruz Biotech) and using a chemiluminesence method (Amersham ECL)."}
{"substance": "IFN-γ: recombinant human IFN-γ, Amgen", "values": [{"measurement": "PKR protein level following treatment with IFN", "value": "increased"}]}
